Conditions: Liquid, Frequency=8 MHz, Pulse-echo method

OCCO [1,2-ethanediol]
Conditions | speed of sound [m/s]
273.15 K, 99 kPa | 1713.8
273.15 K, 5204 kPa | 1727.5
273.15 K, 10344 kPa | 1740.9
273.15 K, 15152 kPa | 1753.2
273.15 K, 20194 kPa | 1765.9
273.15 K, 25132 kPa | 1778.1
273.15 K, 30171 kPa | 1789.9
293.15 K, 99 kPa | 1665.8
293.15 K, 5051 kPa | 1679.8
293.15 K, 10070 kPa | 1693.5
293.15 K, 15176 kPa | 1707.2
293.15 K, 20158 kPa | 1720.2
293.15 K, 25108 kPa | 1732.9
293.15 K, 30024 kPa | 1745.3
313.15 K, 100 kPa | 1618.5
313.15 K, 5031 kPa | 1633.1
313.15 K, 10028 kPa | 1647.3
313.15 K, 15117 kPa | 1661.7
313.15 K, 20088 kPa | 1675.3
313.15 K, 25102 kPa | 1688.7
313.15 K, 29983 kPa | 1701.6
333.15 K, 99 kPa | 1570.7
333.15 K, 5054 kPa | 1586.1
333.15 K, 10048 kPa | 1601.1
333.15 K, 15067 kPa | 1615.8
333.15 K, 20106 kPa | 1630.3
333.15 K, 25103 kPa | 1644.3
333.15 K, 29958 kPa | 1657.7
353.15 K, 100 kPa | 1521.8
353.15 K, 5079 kPa | 1538.1
353.15 K, 10048 kPa | 1553.8
353.15 K, 15054 kPa | 1569.3
353.15 K, 20071 kPa | 1584.4
353.15 K, 25078 kPa | 1599.1
353.15 K, 29995 kPa | 1613.3

CC(O)CO (stereo not given) [1,2-propanediol]
Conditions | speed of sound [m/s]
303.15 K, 99 kPa | 1494.4
303.15 K, 5091 kPa | 1513.5
303.15 K, 10060 kPa | 1532
303.15 K, 15098 kPa | 1550.2
303.15 K, 20084 kPa | 1567.7
303.15 K, 25068 kPa | 1584.7
303.15 K, 30167 kPa | 1601.6
313.15 K, 99 kPa | 1465.9
313.15 K, 5014 kPa | 1485.5
313.15 K, 10053 kPa | 1504.8
313.15 K, 15011 kPa | 1523.2
313.15 K, 20095 kPa | 1541.5
313.15 K, 25202 kPa | 1559.4
313.15 K, 30222 kPa | 1576.5
333.15 K, 100 kPa | 1408.9
333.15 K, 5039 kPa | 1429.7
333.15 K, 10054 kPa | 1450.1
333.15 K, 15107 kPa | 1469.8
333.15 K, 20131 kPa | 1489
333.15 K, 25131 kPa | 1507.4
333.15 K, 30024 kPa | 1524.9
353.15 K, 99 kPa | 1350.9
353.15 K, 5042 kPa | 1373
353.15 K, 10055 kPa | 1394.6
353.15 K, 15135 kPa | 1415.6
353.15 K, 20093 kPa | 1435.5
353.15 K, 25086 kPa | 1454.8
353.15 K, 30207 kPa | 1474.1

CC(C)CO [2-methyl-1-propanol]
Conditions | speed of sound [m/s]
253.15 K, 102 kPa | 1347.3
253.15 K, 5144 kPa | 1373.7
253.15 K, 10257 kPa | 1399.1
253.15 K, 15122 kPa | 1422.2
253.15 K, 20400 kPa | 1446.6
253.15 K, 25315 kPa | 1468
253.15 K, 30039 kPa | 1488.7
273.15 K, 105 kPa | 1274.2
273.15 K, 5154 kPa | 1302.8
273.15 K, 10139 kPa | 1329.4
273.15 K, 15072 kPa | 1354.7
273.15 K, 20215 kPa | 1380
273.15 K, 25138 kPa | 1403.2
273.15 K, 30242 kPa | 1426.4
293.15 K, 102 kPa | 1204.9
293.15 K, 5004 kPa | 1234.9
293.15 K, 10097 kPa | 1264.2
293.15 K, 15140 kPa | 1291.7
293.15 K, 20220 kPa | 1318.2
293.15 K, 25063 kPa | 1342.5
293.15 K, 30100 kPa | 1366.7
313.15 K, 104 kPa | 1138.1
313.15 K, 5135 kPa | 1171.1
313.15 K, 10050 kPa | 1201.4
313.15 K, 15190 kPa | 1231.5
313.15 K, 20126 kPa | 1259
313.15 K, 25019 kPa | 1285.1
313.15 K, 30259 kPa | 1311.7
333.15 K, 100 kPa | 1071.8
333.15 K, 5187 kPa | 1108
333.15 K, 10181 kPa | 1141.3
333.15 K, 15331 kPa | 1173.6
333.15 K, 20135 kPa | 1202
333.15 K, 25174 kPa | 1230.4
333.15 K, 30144 kPa | 1257
353.15 K, 104 kPa | 1004.1
353.15 K, 5055 kPa | 1042.8
353.15 K, 10093 kPa | 1079.4
353.15 K, 15238 kPa | 1114.2
353.15 K, 20157 kPa | 1145.4
353.15 K, 25111 kPa | 1175.1
353.15 K, 30108 kPa | 1203.6

Reference: the NIST ThermoML archive (doi:10.1016/j.jct.2016.06.001)
